From ChEMBL document CHEMBL1201862, “PubChem BioAssay data set” (2004)
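Where inhibition never reached the appropriate level, the endpoint shown equals the highest concentration tested. Otherwise, values were interpolated linearly from a five-concentration, 48-hour dose response in 96-well plates. GI50 is the concentration that inhibits growth by half.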 Calls of active or inactive are those of the source. No stated cut-off is given here; in the data, active = GI50 up to about 1.1 µM and inactive = higher.

Tests used:
Test in all cases: growth of human tumour cells (NCI), 48 h
786-0 = system: 786-0
A498 = system: A498
BT-549 = system: BT-549
HCC 2998 = system: HCC 2998
HCT-116 = system: HCT-116
HT-29 = system: HT-29
LOX IMVI = system: LOX IMVI
M14 = system: M14
MDA-MB-231 = system: MDA-MB-231
NCI-H522 = system: NCI-H522
NCI/ADR-RES = system: NCI/ADR-RES
OVCAR-3 = system: OVCAR-3
SF-295 = system: SF-295
SK-MEL-28 = system: SK-MEL-28
SNB-19 = system: SNB-19
TK-10 = system: TK-10
UACC-257 = system: UACC-257
HL-60 = system: HL-60
Malme-3M = system: Malme-3M
SK-MEL-2 = system: SK-MEL-2

Structure (SMILES) | GI50 (786-0) | GI50 (A498) | GI50 (BT-549) | GI50 (HCC 2998) | GI50 (HCT-116) | GI50 (HT-29) | GI50 (LOX IMVI) | GI50 (M14) | GI50 (MDA-MB-231) | GI50 (NCI-H522) | GI50 (NCI/ADR-RES) | GI50 (OVCAR-3) | GI50 (SF-295) | GI50 (SK-MEL-28) | GI50 (SNB-19) | GI50 (TK-10) | GI50 (UACC-257) | GI50 (HL-60) | GI50 (Malme-3M) | GI50 (SK-MEL-2)
C=CC[C@@H]1C=C[C@@H](C(=O)OC)n2c(=O)n(-c3ccccc3)c(=O)n21 | > 100 µM (inactive) | > 100 µM (inactive) | > 100 µM (inactive) | > 100 µM (inactive) | > 100 µM (inactive) | > 100 µM (inactive) | > 100 µM (inactive) | > 100 µM (inactive) | > 100 µM (inactive) | > 100 µM (inactive) | > 100 µM (inactive) | > 100 µM (inactive) | > 100 µM (inactive) | > 100 µM (inactive) | > 100 µM (inactive) | > 100 µM (inactive) | > 100 µM (inactive) |  |  | 
CCOC(=O)Cc1nc2nn(Cc3ccccc3)cc2c(=O)[nH]1 | > 100 µM (inactive) | 19.3 µM (inactive) | > 100 µM (inactive) | > 100 µM (inactive) | > 100 µM (inactive) | > 100 µM (inactive) | > 100 µM (inactive) |  | > 100 µM (inactive) |  | > 100 µM (inactive) | > 100 µM (inactive) | > 100 µM (inactive) | > 100 µM (inactive) | > 100 µM (inactive) | > 100 µM (inactive) | > 100 µM (inactive) | > 100 µM (inactive) | > 100 µM (inactive) | 
Cc1c2c(c(O)c3c(O)cccc13)C(=O)C1(O)C(=O)C(C(=O)NCNc3ccc(C(N)=O)cn3)=C(O)C(N(C)C)C1C2 (centres undefined) | 5.52 µM (inactive) | 2.51 µM (inactive) | 3.48 µM (inactive) | 3.07 µM (inactive) | 4.06 µM (inactive) | 3.89 µM (inactive) | 4.78 µM (inactive) | 3.63 µM (inactive) | 3.78 µM (inactive) |  | 5.5 µM (inactive) | 2.49 µM (inactive) | 2.87 µM (inactive) | 3.53 µM (inactive) |  | 5.15 µM (inactive) | 3.66 µM (inactive) |  | 3.28 µM (inactive) | 6.95 µM (inactive)
CN(C)c1ccc(C2=C([O-])c3cc(-[n+]4ccccc4)ccc3C2=O)cc1 | > 100 µM (inactive) | > 100 µM (inactive) | > 100 µM (inactive) | > 100 µM (inactive) | > 100 µM (inactive) | > 100 µM (inactive) | > 100 µM (inactive) |  | > 100 µM (inactive) | > 100 µM (inactive) | > 100 µM (inactive) | > 100 µM (inactive) | > 100 µM (inactive) | > 100 µM (inactive) | > 100 µM (inactive) | > 100 µM (inactive) | > 100 µM (inactive) | > 100 µM (inactive) | > 100 µM (inactive) | 
CC(=O)Nc1ccc(N2C(=O)/C(=C\c3cccc(Oc4ccccc4)c3)SC2c2ccccc2)cc1 (centres undefined) | 37.8 µM (inactive) | 50.1 µM (inactive) | 33.3 µM (inactive) | > 100 µM (inactive) | 18.1 µM (inactive) |  | 17.2 µM (inactive) | 32.3 µM (inactive) | 32.6 µM (inactive) | 23.2 µM (inactive) | 29.5 µM (inactive) | 25.5 µM (inactive) | 38.5 µM (inactive) | 27.4 µM (inactive) | 19.8 µM (inactive) | 34.4 µM (inactive) | 35 µM (inactive) | 25.4 µM (inactive) | 28 µM (inactive) | 30.4 µM (inactive)
c1ccc(C(CCN2CCCC2)c2ccccn2)cc1 (centres undefined) | > 100 µM (inactive) | > 100 µM (inactive) | > 100 µM (inactive) | > 100 µM (inactive) | > 100 µM (inactive) | > 100 µM (inactive) | > 100 µM (inactive) | > 100 µM (inactive) | > 100 µM (inactive) | > 100 µM (inactive) | > 100 µM (inactive) |  | > 100 µM (inactive) | > 100 µM (inactive) | > 100 µM (inactive) | > 100 µM (inactive) | > 100 µM (inactive) |  | > 100 µM (inactive) | > 100 µM (inactive)
Cc1ccc2nc(Cl)c(/C=N/N3C(=O)/C(=C/c4cccc([N+](=O)[O-])c4)N=C3c3ccccc3)cc2c1 | > 100 µM (inactive) | 7.71 µM (inactive) | > 100 µM (inactive) | 67.5 µM (inactive) | 27.9 µM (inactive) | 45.3 µM (inactive) | 87.1 µM (inactive) | 63.1 µM (inactive) | 93.1 µM (inactive) |  | 36.5 µM (inactive) | 30.5 µM (inactive) | 40.9 µM (inactive) | > 100 µM (inactive) | > 100 µM (inactive) | > 100 µM (inactive) | 61.1 µM (inactive) | 39.2 µM (inactive) |  | 22.2 µM (inactive)
O=C1C=C(Nc2cccnc2)c2ccccc2/C1=N/O | 57.7 µM (inactive) | 41.3 µM (inactive) | 34.1 µM (inactive) | 22.5 µM (inactive) | 26.6 µM (inactive) | 11.1 µM (inactive) | 26.3 µM (inactive) | 23.2 µM (inactive) | 16.7 µM (inactive) | 9.89 µM (inactive) | 21.5 µM (inactive) | 1.81 µM (inactive) | 39.2 µM (inactive) |  | 1.38 µM (inactive) | > 100 µM (inactive) | 33.1 µM (inactive) | 0.789 µM (active) |  | 31.3 µM (inactive)
CCn1c(=O)c2cn[nH]c2n(C)c1=O | > 100 µM (inactive) | > 100 µM (inactive) | > 100 µM (inactive) | > 100 µM (inactive) | > 100 µM (inactive) | > 100 µM (inactive) | > 100 µM (inactive) | > 100 µM (inactive) | > 100 µM (inactive) | > 100 µM (inactive) | > 100 µM (inactive) | > 100 µM (inactive) | > 100 µM (inactive) | > 100 µM (inactive) | > 100 µM (inactive) | > 100 µM (inactive) | > 100 µM (inactive) |  | > 100 µM (inactive) | > 100 µM (inactive)
COC(=O)CN1SC2(SC13C(C)(C)C(=O)C3(C)C)C(C)(C)C(=O)C2(C)C | > 100 µM (inactive) | 30 µM (inactive) | 27.8 µM (inactive) | 80.2 µM (inactive) | 46 µM (inactive) | > 100 µM (inactive) | 46.9 µM (inactive) | > 100 µM (inactive) | 77.3 µM (inactive) |  | 34.1 µM (inactive) | 41.6 µM (inactive) | 48.3 µM (inactive) | > 100 µM (inactive) | > 100 µM (inactive) | > 100 µM (inactive) | 48.2 µM (inactive) |  | 50.6 µM (inactive) | 60.7 µM (inactive)
CC(C)(Br)C(Br)CC/C(=C/CBr)CBr.CC(C)(Br)C(Br)CC/C(=C\CBr)CBr (centres undefined) | 1.95 µM (inactive) | 20.9 µM (inactive) | 2.45 µM (inactive) | 13.5 µM (inactive) | 2.13 µM (inactive) | 3.02 µM (inactive) | 0.13 µM (active) | 2.02 µM (inactive) | 12 µM (inactive) | 1.66 µM (inactive) | 3.11 µM (inactive) |  | 3.46 µM (inactive) | 2.27 µM (inactive) | 14.4 µM (inactive) | 8.77 µM (inactive) | 6 µM (inactive) | 0.553 µM (active) | 3.85 µM (inactive) | 3.19 µM (inactive)
CNC(=S)N1CCN(C(C)=O)C1=S | > 100 µM (inactive) | 35.6 µM (inactive) | 12.9 µM (inactive) | 31.9 µM (inactive) | > 100 µM (inactive) | 67.8 µM (inactive) | 76.7 µM (inactive) | 42.4 µM (inactive) | 4.27 µM (inactive) | 45.1 µM (inactive) | 69.3 µM (inactive) | 35.4 µM (inactive) | 25.4 µM (inactive) | 29.2 µM (inactive) |  | > 100 µM (inactive) | 70.6 µM (inactive) | 47.8 µM (inactive) | 12.7 µM (inactive) | 2.25 µM (inactive)
O=C1N=C(S)NNC12c1ccccc1-c1ccccc12 | > 10 µM (inactive) | 3.31 µM (inactive) | > 10 µM (inactive) | > 10 µM (inactive) |  | > 10 µM (inactive) | > 10 µM (inactive) | > 10 µM (inactive) | > 10 µM (inactive) |  | > 10 µM (inactive) |  |  | > 10 µM (inactive) |  | > 10 µM (inactive) | > 10 µM (inactive) | > 10 µM (inactive) | > 10 µM (inactive) | 
Cn1c2ccccc2c2ccc3c(c21)C(=O)c1ccccc1C3=O | 17.6 µM (inactive) | > 10 µM (inactive) | 21.1 µM (inactive) | 41.9 µM (inactive) | 17.3 µM (inactive) | 16.9 µM (inactive) | 15.9 µM (inactive) | 27.2 µM (inactive) | 19.5 µM (inactive) | 15.1 µM (inactive) | 13.7 µM (inactive) | 12.9 µM (inactive) | 18.2 µM (inactive) | 14.6 µM (inactive) | 37.8 µM (inactive) | 14.4 µM (inactive) | 19.5 µM (inactive) | 2.75 µM (inactive) | 5.86 µM (inactive) | 
COc1cc(C2c3cc4c(cc3OC(NN)C2C)OCO4)cc(OC)c1OC (centres undefined) | 0.653 µM (active) | 0.257 µM (active) | 9.12 µM (inactive) | 0.536 µM (active) | 0.473 µM (active) | 0.36 µM (active) | 0.458 µM (active) | 0.483 µM (active) | 4.09 µM (inactive) | 0.869 µM (active) | 1.06 µM (active) | 0.265 µM (active) | 0.406 µM (active) | 50.8 µM (inactive) | 0.813 µM (active) | 28.3 µM (inactive) |  | 0.323 µM (active) | 0.34 µM (active) | 0.647 µM (active)
